Entries after “also recorded” stand apart in the source; their conditions may differ.
Assays:
[1] = test system: Mesangial cells; experiment: PDGF stimulated matrix synthesis (proline incorporation) in mesangial cells (Example 3); type: cell-based, rat
Excerpt: Matrix synthesis may be stimulated by platelet derived growth factor (PDGF).

[2] = test system: SD rats post myocardial infarction (LAD ligation); experiment: Myocardial infarct rats treated with FT011; type: in vivo
Procedure: Twenty rats underwent ligation of left anterior descending coronary artery (LAD) to induce anterior myocardial infarction (MI). Briefly, surgery performed under aseptic conditions on a heated table (37° C.) to maintain body warmth during the course of the procedure. The chest swabbed with chlorhexidine in 70% ethanol to disinfect the area. An incision made into the skin to the left of the sternum and the underlying muscle layers blunt dissected. A thoracotomy performed through the fourth to fifth intercostal space and the ribs held open using retractors to enable access to the heart. The pericardial sac surrounding the heart torn open and a 6-0 prolene suture used to ligate the LAD immediately. Visible blanching and hypokinesis of the anterior wall of the left ventricle and swelling of the left atrium are indicative of successful ligation. The control groups (sham+vehicle, sham+FT011) underwent a sham operation consisting of the same procedure except that the suture passed through the myocardium beneath the LAD without ligation.
Echocardiography was performed on all animals 2 days post surgery and randomised to sham and MI groups. Animals were re-randomised at day 7 post surgery (10 animal each) to receive: vehicle or FT011 (100 mg/kg bid gavage). Every week, systolic blood pressure (SBP) was determined in preheated conscious rats via tail-cuff plethysmography using a non-invasive blood pressure (NIBP) controller and Powerlab (AD instruments, NSW, Australia). Cardiac function was assessed by echocardiography and cardiac catheterization prior to sacrificing at day 35 post surgery for all animals.
Echocardiography, including Doppler examination, was performed using a Vivid 7 Dimension (GE Vingmed, Horten, Norway) echocardiograph with a 10 MHz phased array probe. Electrocardiographic data were acquired simultaneously. End-diastole was defined as the peak of the R wave, and end-systole was defined as the end of the T wave.
Animals were anaesthetized with pentobarbitone sodium 60 mg/kg i.p. injection. Animals underwent echocardiographic interrogation in the left recumbent position. M-mode echocardiography was performed using a parasternal short axis view at the level of the papillary muscles. Left ventricular posterior (LVPW) and anterior wall thickness (LVAW) were obtained during diastole (d) and systole (s), as were the left ventricular internal diameter at end-diastole (LVIDd) and end-systole (LVIDs). From the para-sternal short axis view, the end diastolic and end systolic cross sectional blood pool areas were measured. Fractional area change (FAC) was then calculated according to the formulae: FAC=[(end-diastolic area-end-systolic area)/end-diastolic area]*100.
The apical 4-chamber view was used to assess early and late transmitral peak diastolic flow velocity (E and A waves), using pulsed wave Doppler with a sample volume of 2 mm placed at the tips of the mitral valve leaflets. All Doppler spectra were recorded for 10 cardiac cycles at a sweep speed of 200 mm/s. All parameters were assessed using an average of three beats, and calculations were made in accordance with the American Society of Echocardiography guidelines. All data were acquired and analyzed by a single blinded observer using EchoPAC (GE Vingmed) offline processing.
Post echocardiography, animals were placed on a warming pad (37° C.), intubated using a 14 gauge catheter, and ventilated using positive pressure with a tidal volume of […] at 70 breaths per minute using room air. Animals were secured in a recumbent position and the right jugular vein was cannulated with 0.9% NaCl infused at 100 μL per hour. […] The right internal carotid was then identified and ligated cranially. A 2F miniaturized combined conductance catheter-micromanometer was inserted into the carotid artery to obtain aortic blood pressure, then advanced into the left ventricle until stable pressure volume (PV) loops were obtained.

[3] = test system: rat mesangial cell line; experiment: Effect on mesangial cell appearance (visual monitoring during proline assay); type: cell-based; conditions: @ 100 μM
[4] = Pilot study (toxicity assessment), 2 weeks oral gavage; type: in vivo, Sprague-Dawley (SD) rats; conditions: for ALT / Body weight / Plasma Creatinine / Plasma Urate: 2 weeks
Procedure: A total of twenty male Sprague-Dawley (SD) rats weighing 200-250 g were randomised to either FT011 (Fibrotech Therapeutics Pty Ltd, Melbourne, Australia) or Tranilast (Pharm Chemical, Shanghai Lansheng Corporation, China) at the dose of 50 mg, 100 mg, 200 mg and 400 mg/kg/day by gavage twice daily (n=2-3 per group). A control group of animals were gavaged with vehicle (1% carboxy methyl cellulose). The study was conducted for 2 weeks. Animals were bled daily at one, four, and eight hours after oral gavage to measure the plasma concentration. Serum was also collected to assess renal and liver function at the end of the study (plasma creatine and urate, ALT and bilirubin). Rats were individually housed in metabolic cages at the end of the study, habituated for 2 to 3 hours, and urine collected over 24 hours. Animals continued to have free access to tap water and standard laboratory chow during this period. The biochemistry tests performed at the department of pathology, St Vincent's hospital. Major organs including lung, heart, liver, spleen and kidney were harvested and immersed fix with 10% neutral buffered formalin and then embedded paraffin for subsequent light microscope examination.

[5] = MI rats, 100 mg/kg bid gavage from day 7, day 35 post surgery
[6] = MI rats, 100 mg/kg bid gavage, echocardiography
[7] = MI rats, 100 mg/kg bid gavage, listed as FT011, 100 mg/kg

Q: What does the source list for `C#CCOc1ccc(/C=C/C(=O)Nc2ccccc2C(=O)O)cc1OC` [Analogue 11]?
A: PDGF-stimulated matrix synthesis (proline incorporation) ([1]; 30 and 100 μM): inhibits; potency at reducing proline incorporation compared with tranilast ([1]; PDGF stimulation, 30 μM): more potent; Myocardial infarct size, treated versus untreated MI groups ([2]; 100 mg/kg bid gavage, P=0.36): similar; LVED ([2]; MI rats, 100 mg/kg bid gavage): 0.53 ± 0.04 mL; LVES ([2]; MI rats, 100 mg/kg bid gavage): 0.15 ± 0.02 mL; LV/BW [2, 5]: 0.22 ± 0.004; RV/BW [2, 5]: 0.048 ± 0.002; adverse LV remodelling on echocardiography (LVIDd, LVIDs, FAC, E:A ratio, deceleration time) ([2]; MI rats, 100 mg/kg bid gavage, 5 weeks post MI): significantly attenuated; Deceleration time [2, 6]: 38.64 ± 1.2 ms; E:A ratio [2, 6]: 2.00 ± 0.26; FAC % [2, 6]: 42.69 ± 2.3 %; LVIDd [2, 6]: 0.92 ± 0.03 cm; LVIDs [2, 6]: 0.70 ± 0.03 cm; collagen subtype I and III immunostaining in non-infarct zone [2, 7]: reduction in immunostaining; also recorded: attenuated; infiltration of ED-1 positive macrophages in non-infarct zone [2, 7]: reduction in macrophage number; also recorded: attenuated; interstitial fibrosis in non-infarct zone (Masson's trichrome) [2, 7]: marked reduction; also recorded: attenuated; Effect on mesangial cell appearance [3]: stress @; ALT ([4]; 50 mg/kg/day gavage): 41 ± 1; Body weight ([4]; 50 mg/kg/day gavage): 313 ± 24 Gram; Plasma Creatinine ([4]; 50 mg/kg/day gavage): 38 ± 2 µmol/L; Plasma Urate ([4]; 50 mg/kg/day gavage): <0.09 mmol/L; ALT ([4]; 100 mg/kg/day gavage): 44 ± 2; Body weight ([4]; 100 mg/kg/day gavage): 308 ± 22 Gram; Plasma Creatinine ([4]; 100 mg/kg/day gavage): 39 ± 0.5 µmol/L; Plasma Urate ([4]; 100 mg/kg/day gavage): <0.09 mmol/L; ALT ([4]; 200 mg/kg/day gavage): 36 ± 0.5; Body weight ([4]; 200 mg/kg/day gavage): 301 ± 8 Gram; Plasma Creatinine ([4]; 200 mg/kg/day gavage): 37 ± 0.6 µmol/L; Plasma Urate ([4]; 200 mg/kg/day gavage): <0.09 mmol/L; ALT ([4]; 400 mg/kg/day gavage): 32 ± 4.4; Body weight ([4]; 400 mg/kg/day gavage): 264 ± 29 Gram; Plasma Creatinine ([4]; 400 mg/kg/day gavage): 36 ± 3.9 µmol/L; Plasma Urate ([4]; 400 mg/kg/day gavage): <0.09 mmol/L; level of FT011 measured in plasma ([4]; following gavage, 50-400 mg/kg/day): increased in a dose dependent manner; level of FT011 measured in urine ([4]; rats treated with FT011, 24 h urine): significant level
